According to patent US20050239656A1, “Pyridine compounds or salts thereof and herbicides containing the same” (priority 2002, published 2005):

Assays:
barnyardgrass [1] = experiment: Test Example 2: soil surface treatment, upland pot test; format: in vivo, Echinochloa crus-galli L.; details: observed 20th to 28th day
Outline: (§1)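 Soil surface treated 1 day post-sowing. Formulation: WP or EC, predetermined a.i., diluted to 1,500 L/ha. Pot size 1/170,000 ha, upland soil. Readout: visual % control, 0 = non-treated, 100 = dead, days 20–28.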

crabgrass = experiment: as above; format: in vivo, Digitaria sanguinalis L.; details: observed 20th to 28th day
Outline: as §1

green foxtail = experiment: as above; format: in vivo, Setaria viridis L.; details: observed 20th to 28th day
Outline: as §1

redroot pigweed = experiment: as above; format: in vivo, Amaranthus retroflexus L.; details: observed 20th to 28th day
Outline: as §1

prickly sida = experiment: as above; format: in vivo, Sida spinosa L.; details: observed 20th to 28th day
Outline: as §1

velvetleaf = experiment: as above; format: in vivo, Abutilon theophrasti MEDIC.; details: observed 20th to 28th day
Outline: as §1

rice = experiment: as above; format: in vivo, Oryza sativa L.; details: observed 20th to 28th day
Outline: as §1

wheat = experiment: as above; format: in vivo, Triticum spp.; details: observed 20th to 28th day
Source text: Upland field soil was put into a 1/170,000 ha pot, and seed of various plants (barnyardgrass, crabgrass, green foxtail, redroot pigweed, prickly sida, velvetleaf, rice, wheat, corn, soybean) were sown. On the 1st day after the sowing, a wettable powder or emulsifiable concentrate having the compound of the present invention formulated in accordance with a usual formulation method, was weighed so that the active ingredient would be a predetermined amount, and diluted with water in an amount of 1,500 L/ha. The herbicide thus adjusted was applied by a small size sprayer for soil surface treatment. On the 20th to 28th days after the application of the herbicide, the growth of the respective plants was visually observed, and the herbicidal effects were evaluated by the growth controlling degrees (%) ranging from 0 (equivalent to the non-treated plot) to 100 (complete kill), whereby the results shown in Table 4, were obtained.

corn = experiment: as above; format: in vivo, Zea mays L.; details: observed 20th to 28th day
Outline: as §1

soybean = experiment: as above; format: in vivo, Glycine max Merr.; details: observed 20th to 28th day
Outline: as §1

barnyardgrass [2] = experiment: Test Example 3: paddy pot test, application under submerged conditions; format: in vivo, Echinochloa crus-galli L.; details: submerged application at 0.5 leaf stage, visually observed 14 days after application, 0 = non-treated, 100 = complete kill
Outline: (§2)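 Seeds were sown in flooded paddy soil (0.5–1 cm water), wapato tubers were planted 1–2 days later, and water was then held at 3–4 cm. Diluted wettable powder or emulsifiable concentrate was pipetted into the water at the 0.5 leaf or primary leaf stage. Growth control was visually scored at 14 days (0–100%).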

japanese bulrush = experiment: as above; format: in vivo, Scirpus juncoides; details: submerged application at 0.5 leaf stage, visually observed 14 days after application, 0 = non-treated, 100 = complete kill
Outline: as §2

japanese ribbon wapato = experiment: as above; format: in vivo, Sagittaria pygniaea; details: submerged application at primary leaf stage, visually observed 14 days after application, 0 = non-treated, 100 = complete kill
Outline: as §2

rice (var. Nihonbare) = experiment: Test Example 3: paddy pot test, transplanted rice; format: in vivo, Oryza sativa L.; details: applied 4th day after transplantation, visually observed 21st day after application, 0 = non-treated, 100 = complete kill
Outline: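 Rice (2-leaf stage) was transplanted 3 cm deep into puddled, leveled paddy soil under 3–4 cm flooding. On day 4 after transplanting, diluted wettable powder or emulsifiable concentrate was pipetted onto the water at a predetermined active-ingredient dose. Growth control (0 = untreated, 100 = complete kill) was scored visually 21 days later.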

[3] = active ingredient 1000 g/ha, 0 = non-treated, 100 = complete kill

| Structure (SMILES) | Growth controlling degree (%) Barnyardgrass (barnyardgrass [2]; active ingredient 500 g/ha) | Growth controlling degree (%) Japanese bulrush (japanese bulrush; active ingredient 500 g/ha) | Growth controlling degree (%) Japanese ribbon wapato (japanese ribbon wapato; active ingredient 500 g/ha) | Growth controlling degree (%) Rice (rice (var. Nihonbare); active ingredient 500 g/ha) | Growth controlling degree (%) Barnyardgrass (barnyardgrass [1]; [3]) | Growth controlling degree (%) Crabgrass (crabgrass; active ingredient 1000 g/ha) | Growth controlling degree (%) Green foxtail (green foxtail; active ingredient 1000 g/ha) | Growth controlling degree (%) Redroot pigweed (redroot pigweed; active ingredient 1000 g/ha) | Growth controlling degree (%) Prickly sida (prickly sida; active ingredient 1000 g/ha) | Growth controlling degree (%) Velvetleaf (velvetleaf; active ingredient 1000 g/ha) | Growth controlling degree (%) Rice (rice; active ingredient 1000 g/ha) | Growth controlling degree (%) wheat (wheat; active ingredient 1000 g/ha) | Growth controlling degree (%) Corn (corn; active ingredient 1000 g/ha) | Growth controlling degree (%) Soyabean (soybean; active ingredient 1000 g/ha) | Growth controlling degree (%) Barnyardgrass (barnyardgrass [1]; active ingredient 250 g/ha) | Growth controlling degree (%) Crabgrass (crabgrass; active ingredient 250 g/ha) | Growth controlling degree (%) Green foxtail (green foxtail; active ingredient 250 g/ha) | Growth controlling degree (%) Redroot pigweed (redroot pigweed; active ingredient 250 g/ha) | Growth controlling degree (%) Prickly sida (prickly sida; active ingredient 250 g/ha) | Growth controlling degree (%) Velvetleaf (velvetleaf; active ingredient 250 g/ha) | other results |
| --- | --- | --- | --- | --- | --- | --- | --- | --- | --- | --- | --- | --- | --- | --- | --- | --- | --- | --- | --- | --- | --- |
| CN(C(=O)Cc1ccccc1)C(c1cnccc1C(F)(F)F)c1cccc2ccccc12 (stereo not drawn) [Compound I-47] | 98% | 30% | 0% | 10% | – | – | – | – | – | – | – | – | – | – | – | – | – | – | – | – | Growth controlling degree (%) Barnyardgrass (barnyardgrass [1]; active ingredient 2000 g/ha): 60%; Growth controlling degree (%) Crabgrass (crabgrass; active ingredient 2000 g/ha): 90%; Growth controlling degree (%) Green foxtail (green foxtail; active ingredient 2000 g/ha): 80%; Growth controlling degree (%) Redroot pigweed (redroot pigweed; active ingredient 2000 g/ha): 0%; Growth controlling degree (%) Prickly sida (prickly sida; active ingredient 2000 g/ha): 40%; Growth controlling degree (%) Velvetleaf (velvetleaf; active ingredient 2000 g/ha): 20%; Growth controlling degree (%) Rice (rice; active ingredient 2000 g/ha): 0%; Growth controlling degree (%) wheat (wheat; active ingredient 2000 g/ha): 20%; Growth controlling degree (%) Corn (corn; active ingredient 2000 g/ha): 10%; Growth controlling degree (%) Soyabean (soybean; active ingredient 2000 g/ha): 10% |
| CC(C)C(c1cnccc1Cl)N(C)C(=O)Cc1ccccc1 (stereo not drawn) [I-22] | – | 95% | 95% | 0% | – | – | – | – | – | – | – | – | – | – | – | – | – | – | – | – | Growth controlling degree (%) Barnyardgrass (barnyardgrass [1]; active ingredient 500 g/ha): 90%; Growth controlling degree (%) Crabgrass (crabgrass; active ingredient 500 g/ha): 95%; Growth controlling degree (%) Green foxtail (green foxtail; active ingredient 500 g/ha): 90%; Growth controlling degree (%) Redroot pigweed (redroot pigweed; active ingredient 500 g/ha): 90%; Growth controlling degree (%) Prickly sida (prickly sida; active ingredient 500 g/ha): 70%; Growth controlling degree (%) Velvetleaf (velvetleaf; active ingredient 500 g/ha): 70%; Growth controlling degree (%) Rice (rice; active ingredient 500 g/ha): 10%; Growth controlling degree (%) wheat (wheat; active ingredient 500 g/ha): 30%; Growth controlling degree (%) Corn (corn; active ingredient 500 g/ha): 20%; Growth controlling degree (%) Soyabean (soybean; active ingredient 500 g/ha): 10% |
| CC(C)C(c1cnccc1C(F)(F)F)N(C)C(=O)Cc1cccc(F)c1 (stereo not drawn) [Compound I-20] | – | 90% | 90% | 40% | – | – | – | – | – | – | – | – | – | – | – | – | – | – | – | – | Growth controlling degree (%) Barnyardgrass (barnyardgrass [1]; active ingredient 500 g/ha): 100%; Growth controlling degree (%) Crabgrass (crabgrass; active ingredient 500 g/ha): 100%; Growth controlling degree (%) Green foxtail (green foxtail; active ingredient 500 g/ha): 100%; Growth controlling degree (%) Redroot pigweed (redroot pigweed; active ingredient 500 g/ha): 95%; Growth controlling degree (%) Prickly sida (prickly sida; active ingredient 500 g/ha): 100%; Growth controlling degree (%) Velvetleaf (velvetleaf; active ingredient 500 g/ha): 100%; Growth controlling degree (%) Rice (rice; active ingredient 500 g/ha): 0%; Growth controlling degree (%) wheat (wheat; active ingredient 500 g/ha): 40%; Growth controlling degree (%) Corn (corn; active ingredient 500 g/ha): 70%; Growth controlling degree (%) Soyabean (soybean; active ingredient 500 g/ha): 30% |
| CC(C(=O)NC(c1cnccc1C(F)(F)F)C(C)C)c1ccccc1 (stereo not drawn) [Compound I-11] | 60% | 90% | 30% | 10% | 98% | 90% | 90% | 0% | 0% | 0% | 0% | 50% | 10% | 0% | – | – | – | – | – | – | – |
| CC(C)C(NC(=O)Cc1ccccc1)c1cnccc1C(F)(F)F (stereo not drawn) [Compound I-3] | – | – | – | – | 0% | 90% | 90% | 20% | 10% | 0% | 10% | 0% | 0% | 0% | – | – | – | – | – | – | Growth controlling degree (%) Barnyardgrass (barnyardgrass [2]; active ingredient 1000 g/ha): 90%; Growth controlling degree (%) Japanese bulrush (japanese bulrush; active ingredient 1000 g/ha): 98%; Growth controlling degree (%) Japanese ribbon wapato (japanese ribbon wapato; active ingredient 1000 g/ha): 30%; Growth controlling degree (%) Rice (rice (var. Nihonbare); active ingredient 1000 g/ha): 20% |
| CCC(=O)NC(c1cnccc1C(F)(F)F)c1cccc2ccccc12 (stereo not drawn) [Compound I-42] | 70% | 95% | 10% | 30% | 70% | 90% | 90% | 0% | 0% | 0% | 0% | 30% | 10% | 0% | – | – | – | – | – | – | – |
| CN(C(=O)Cc1cccs1)C(c1cnccc1C(F)(F)F)c1cccc2ccccc12 (stereo not drawn) [Compound I-48] | 100% | 30% | 0% | 10% | – | – | – | – | – | – | – | – | – | – | – | – | – | – | – | – | Growth controlling degree (%) Barnyardgrass (barnyardgrass [1]; active ingredient 2000 g/ha): 20%; Growth controlling degree (%) Crabgrass (crabgrass; active ingredient 2000 g/ha): 70%; Growth controlling degree (%) Green foxtail (green foxtail; active ingredient 2000 g/ha): 100%; Growth controlling degree (%) Redroot pigweed (redroot pigweed; active ingredient 2000 g/ha): 30%; Growth controlling degree (%) Prickly sida (prickly sida; active ingredient 2000 g/ha): 20%; Growth controlling degree (%) Velvetleaf (velvetleaf; active ingredient 2000 g/ha): 40%; Growth controlling degree (%) Rice (rice; active ingredient 2000 g/ha): 20%; Growth controlling degree (%) wheat (wheat; active ingredient 2000 g/ha): 30%; Growth controlling degree (%) Corn (corn; active ingredient 2000 g/ha): 10%; Growth controlling degree (%) Soyabean (soybean; active ingredient 2000 g/ha): 0% |
| CCC(Br)C(=O)N(C)C(c1cnccc1C(F)(F)F)C(C)C (stereo not drawn) [Compound I-202] | – | – | – | – | – | – | – | – | – | – | – | – | – | – | 100% | 100% | 95% | 80% | 70% | 40% | Growth controlling degree (%) Rice (rice; active ingredient 250 g/ha): 60%; Growth controlling degree (%) wheat (wheat; active ingredient 250 g/ha): 40%; Growth controlling degree (%) Corn (corn; active ingredient 250 g/ha): 50%; Growth controlling degree (%) Soyabean (soybean; active ingredient 250 g/ha): 35%; Growth controlling degree (%) Barnyardgrass (barnyardgrass [2]; active ingredient 250 g/ha): 98%; Growth controlling degree (%) Japanese bulrush (japanese bulrush; active ingredient 250 g/ha): 98%; Growth controlling degree (%) Rice (rice (var. Nihonbare); active ingredient 250 g/ha): 10% |
| CC(=Cc1ccccc1)C(=O)N(C)C(c1cnccc1C(F)(F)F)C(C)C (stereo not drawn) [I-206] | – | – | – | – | – | – | – | – | – | – | – | – | – | – | 100% | 100% | 100% | 70% | 50% | 40% | Growth controlling degree (%) Rice (rice; active ingredient 250 g/ha): 40%; Growth controlling degree (%) wheat (wheat; active ingredient 250 g/ha): 30%; Growth controlling degree (%) Corn (corn; active ingredient 250 g/ha): 30%; Growth controlling degree (%) Soyabean (soybean; active ingredient 250 g/ha): 20%; Growth controlling degree (%) Barnyardgrass (barnyardgrass [2]; active ingredient 250 g/ha): 100%; Growth controlling degree (%) Japanese bulrush (japanese bulrush; active ingredient 250 g/ha): 98%; Growth controlling degree (%) Rice (rice (var. Nihonbare); active ingredient 250 g/ha): 10% |
| CC(C)C(c1cnccc1C(F)(F)F)N(C)C(=O)C1CC1 (stereo not drawn) [Compound I-204] | – | – | – | – | – | – | – | – | – | – | – | – | – | – | 100% | 100% | 100% | 95% | 95% | 70% | Growth controlling degree (%) Rice (rice; active ingredient 250 g/ha): 100%; Growth controlling degree (%) wheat (wheat; active ingredient 250 g/ha): 95%; Growth controlling degree (%) Corn (corn; active ingredient 250 g/ha): 70%; Growth controlling degree (%) Soyabean (soybean; active ingredient 250 g/ha): 70%; Growth controlling degree (%) Barnyardgrass (barnyardgrass [2]; active ingredient 250 g/ha): 100%; Growth controlling degree (%) Japanese bulrush (japanese bulrush; active ingredient 250 g/ha): 98%; Growth controlling degree (%) Rice (rice (var. Nihonbare); active ingredient 250 g/ha): 60% |
